# Source: ChEMBL document CHEMBL5291721, “A preclinical secondary pharmacology resource illuminates target-adverse drug reaction associations of marketed drugs” (Nat Commun, 2023)
# Key:
# Adenosine receptor A1 = molecular target: T1, Adenosine receptor A1 (Homo sapiens, UniProt P30542)
# T1 sequence (P30542 whole entry): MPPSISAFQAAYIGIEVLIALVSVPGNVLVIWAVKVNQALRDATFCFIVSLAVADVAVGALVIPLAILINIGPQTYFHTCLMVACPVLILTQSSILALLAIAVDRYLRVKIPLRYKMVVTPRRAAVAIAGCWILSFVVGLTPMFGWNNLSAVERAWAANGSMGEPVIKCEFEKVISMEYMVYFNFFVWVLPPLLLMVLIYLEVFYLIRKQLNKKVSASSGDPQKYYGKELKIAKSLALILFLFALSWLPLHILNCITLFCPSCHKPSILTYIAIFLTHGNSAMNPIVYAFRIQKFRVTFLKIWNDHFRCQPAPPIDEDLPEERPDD
# Adenosine receptor A2a = Adenosine receptor A2a (Homo sapiens, UniProt P29274)
# Chain of Adenosine receptor A2a (P29274 whole entry): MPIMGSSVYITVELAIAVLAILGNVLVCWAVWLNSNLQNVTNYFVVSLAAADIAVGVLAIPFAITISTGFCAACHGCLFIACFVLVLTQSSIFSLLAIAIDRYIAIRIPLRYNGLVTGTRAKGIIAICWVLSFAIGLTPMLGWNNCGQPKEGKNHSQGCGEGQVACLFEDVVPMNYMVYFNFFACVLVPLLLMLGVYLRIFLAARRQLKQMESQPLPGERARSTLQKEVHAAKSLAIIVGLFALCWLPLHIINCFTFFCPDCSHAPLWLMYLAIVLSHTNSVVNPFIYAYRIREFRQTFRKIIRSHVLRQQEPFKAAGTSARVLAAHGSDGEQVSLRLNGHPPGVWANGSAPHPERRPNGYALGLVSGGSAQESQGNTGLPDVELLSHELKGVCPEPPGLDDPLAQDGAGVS
# [1] = molecular target: T2, Alpha-2A adrenergic receptor (Homo sapiens, UniProt P08913); type: functional, cell-based
# T2 sequence (P08913 whole entry): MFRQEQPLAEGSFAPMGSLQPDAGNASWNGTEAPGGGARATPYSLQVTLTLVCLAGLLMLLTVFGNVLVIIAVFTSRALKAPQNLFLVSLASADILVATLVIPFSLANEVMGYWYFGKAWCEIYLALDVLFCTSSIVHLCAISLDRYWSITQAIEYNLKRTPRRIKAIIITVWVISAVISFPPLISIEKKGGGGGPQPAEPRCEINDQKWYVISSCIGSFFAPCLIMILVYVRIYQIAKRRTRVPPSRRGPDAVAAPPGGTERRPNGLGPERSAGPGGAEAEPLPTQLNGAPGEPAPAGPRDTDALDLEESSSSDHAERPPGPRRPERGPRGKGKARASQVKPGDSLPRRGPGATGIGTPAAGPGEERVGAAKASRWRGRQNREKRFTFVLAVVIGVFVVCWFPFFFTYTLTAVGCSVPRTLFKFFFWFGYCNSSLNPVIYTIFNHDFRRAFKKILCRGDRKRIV
# [2] = molecular target: T3, Alpha-2C adrenergic receptor (Homo sapiens, UniProt P18825); type: functional
# T3 sequence (P18825 whole entry): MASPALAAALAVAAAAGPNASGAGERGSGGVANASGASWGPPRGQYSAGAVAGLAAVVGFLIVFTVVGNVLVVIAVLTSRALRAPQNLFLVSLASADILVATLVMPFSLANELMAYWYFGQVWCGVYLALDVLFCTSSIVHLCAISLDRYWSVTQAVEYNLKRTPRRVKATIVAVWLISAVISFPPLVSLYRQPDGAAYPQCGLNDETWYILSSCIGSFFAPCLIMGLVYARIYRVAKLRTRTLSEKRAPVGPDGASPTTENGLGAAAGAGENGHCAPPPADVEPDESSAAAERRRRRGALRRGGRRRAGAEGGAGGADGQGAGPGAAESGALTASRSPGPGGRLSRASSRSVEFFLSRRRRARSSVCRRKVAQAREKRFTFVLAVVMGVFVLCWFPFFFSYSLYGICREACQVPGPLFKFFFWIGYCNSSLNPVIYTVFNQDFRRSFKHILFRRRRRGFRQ
# Vasopressin V2 receptor = Vasopressin V2 receptor (Homo sapiens, UniProt P30518)
# [3] = molecular target: Voltage-dependent L-type calcium channel subunit alpha-1C (Rattus norvegicus, UniProt P22002); type: functional
# Chain of Voltage-dependent L-type calcium channel subunit alpha-1C (P22002 whole entry): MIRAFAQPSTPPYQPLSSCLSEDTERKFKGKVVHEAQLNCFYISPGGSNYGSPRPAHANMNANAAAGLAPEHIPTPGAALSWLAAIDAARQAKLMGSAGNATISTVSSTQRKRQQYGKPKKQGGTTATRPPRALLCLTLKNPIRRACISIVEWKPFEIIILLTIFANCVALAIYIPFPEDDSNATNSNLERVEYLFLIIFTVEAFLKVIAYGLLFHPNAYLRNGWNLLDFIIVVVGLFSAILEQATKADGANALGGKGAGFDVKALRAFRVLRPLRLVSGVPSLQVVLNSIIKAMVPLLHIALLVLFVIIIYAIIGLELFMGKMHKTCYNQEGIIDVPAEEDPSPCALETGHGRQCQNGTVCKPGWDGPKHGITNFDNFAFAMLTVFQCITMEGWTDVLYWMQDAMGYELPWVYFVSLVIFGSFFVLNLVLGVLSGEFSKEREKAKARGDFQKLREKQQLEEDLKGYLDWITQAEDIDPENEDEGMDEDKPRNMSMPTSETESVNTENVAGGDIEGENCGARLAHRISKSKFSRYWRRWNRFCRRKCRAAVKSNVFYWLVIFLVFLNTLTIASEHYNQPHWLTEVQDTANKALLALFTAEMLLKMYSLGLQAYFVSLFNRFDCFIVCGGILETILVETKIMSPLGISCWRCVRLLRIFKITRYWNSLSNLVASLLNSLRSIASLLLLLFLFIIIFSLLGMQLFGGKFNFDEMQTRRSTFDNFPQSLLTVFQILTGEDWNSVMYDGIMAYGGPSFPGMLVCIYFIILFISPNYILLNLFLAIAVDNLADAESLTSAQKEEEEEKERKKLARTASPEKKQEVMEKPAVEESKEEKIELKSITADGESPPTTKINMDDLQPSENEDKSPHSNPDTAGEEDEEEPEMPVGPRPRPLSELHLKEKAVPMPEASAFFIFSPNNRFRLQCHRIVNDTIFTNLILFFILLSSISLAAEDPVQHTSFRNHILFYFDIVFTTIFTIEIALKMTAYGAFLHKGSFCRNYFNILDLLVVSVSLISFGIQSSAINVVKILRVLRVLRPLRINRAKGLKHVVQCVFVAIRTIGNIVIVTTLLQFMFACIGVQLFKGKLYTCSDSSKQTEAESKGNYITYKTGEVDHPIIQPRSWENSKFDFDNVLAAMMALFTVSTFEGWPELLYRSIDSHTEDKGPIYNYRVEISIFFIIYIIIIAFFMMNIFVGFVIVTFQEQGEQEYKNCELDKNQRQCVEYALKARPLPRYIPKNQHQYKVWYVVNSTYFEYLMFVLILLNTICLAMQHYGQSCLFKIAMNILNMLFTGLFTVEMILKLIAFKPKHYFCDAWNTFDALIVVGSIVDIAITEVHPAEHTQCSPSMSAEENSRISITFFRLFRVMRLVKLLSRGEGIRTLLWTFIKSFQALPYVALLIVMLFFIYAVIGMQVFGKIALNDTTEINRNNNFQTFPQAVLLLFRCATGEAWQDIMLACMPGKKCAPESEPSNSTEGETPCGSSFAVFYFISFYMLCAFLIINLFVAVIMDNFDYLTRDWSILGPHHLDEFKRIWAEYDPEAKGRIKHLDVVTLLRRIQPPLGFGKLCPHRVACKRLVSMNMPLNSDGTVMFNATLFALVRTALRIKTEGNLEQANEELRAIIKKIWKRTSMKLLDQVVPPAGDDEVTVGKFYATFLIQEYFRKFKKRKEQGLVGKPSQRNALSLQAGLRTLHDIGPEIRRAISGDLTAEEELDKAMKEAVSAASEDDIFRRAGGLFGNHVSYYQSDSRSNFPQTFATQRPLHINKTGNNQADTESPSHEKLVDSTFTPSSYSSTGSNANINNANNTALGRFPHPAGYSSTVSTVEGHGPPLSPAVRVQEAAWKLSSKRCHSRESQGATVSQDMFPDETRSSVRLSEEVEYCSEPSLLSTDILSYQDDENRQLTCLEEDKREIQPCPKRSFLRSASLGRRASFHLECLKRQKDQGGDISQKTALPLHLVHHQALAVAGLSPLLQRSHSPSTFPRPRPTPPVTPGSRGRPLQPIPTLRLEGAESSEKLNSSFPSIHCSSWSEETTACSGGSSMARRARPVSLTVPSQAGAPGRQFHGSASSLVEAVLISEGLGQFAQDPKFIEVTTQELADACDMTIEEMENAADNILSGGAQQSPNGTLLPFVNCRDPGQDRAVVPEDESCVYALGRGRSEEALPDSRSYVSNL
# [4] = molecular target: Gamma-aminobutyric acid receptor subunit alpha-1 (Rattus norvegicus, UniProt P62813); type: functional
# Chain of Gamma-aminobutyric acid receptor subunit alpha-1 (P62813 whole entry): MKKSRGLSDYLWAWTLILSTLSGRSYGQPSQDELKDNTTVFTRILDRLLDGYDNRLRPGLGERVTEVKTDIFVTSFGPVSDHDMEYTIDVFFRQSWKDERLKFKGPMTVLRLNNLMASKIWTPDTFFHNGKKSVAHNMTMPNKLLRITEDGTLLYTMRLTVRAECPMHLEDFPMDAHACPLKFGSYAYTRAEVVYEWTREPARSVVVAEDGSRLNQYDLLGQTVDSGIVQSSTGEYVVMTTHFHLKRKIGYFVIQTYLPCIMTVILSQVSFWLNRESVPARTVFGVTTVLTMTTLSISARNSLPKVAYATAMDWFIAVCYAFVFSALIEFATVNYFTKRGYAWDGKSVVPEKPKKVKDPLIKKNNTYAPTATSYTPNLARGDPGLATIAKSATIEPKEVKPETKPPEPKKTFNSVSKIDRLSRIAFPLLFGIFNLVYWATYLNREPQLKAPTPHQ
# [5] = molecular target: Growth hormone secretagogue receptor type 1 (Homo sapiens, UniProt Q92847)
# Chain of Growth hormone secretagogue receptor type 1 (Q92847 whole entry): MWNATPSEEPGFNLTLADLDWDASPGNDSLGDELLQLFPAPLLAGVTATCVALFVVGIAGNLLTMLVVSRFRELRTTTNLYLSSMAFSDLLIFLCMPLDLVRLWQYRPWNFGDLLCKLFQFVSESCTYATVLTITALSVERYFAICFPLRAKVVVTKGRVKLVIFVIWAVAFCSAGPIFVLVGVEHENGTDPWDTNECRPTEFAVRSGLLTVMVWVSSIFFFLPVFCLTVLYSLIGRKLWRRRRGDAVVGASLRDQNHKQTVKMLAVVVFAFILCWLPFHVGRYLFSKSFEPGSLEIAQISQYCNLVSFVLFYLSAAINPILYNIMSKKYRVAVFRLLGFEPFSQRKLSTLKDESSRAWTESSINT
# [6] = molecular target: Kappa-type opioid receptor (Homo sapiens, UniProt P41145)
# Chain of Kappa-type opioid receptor (P41145 whole entry): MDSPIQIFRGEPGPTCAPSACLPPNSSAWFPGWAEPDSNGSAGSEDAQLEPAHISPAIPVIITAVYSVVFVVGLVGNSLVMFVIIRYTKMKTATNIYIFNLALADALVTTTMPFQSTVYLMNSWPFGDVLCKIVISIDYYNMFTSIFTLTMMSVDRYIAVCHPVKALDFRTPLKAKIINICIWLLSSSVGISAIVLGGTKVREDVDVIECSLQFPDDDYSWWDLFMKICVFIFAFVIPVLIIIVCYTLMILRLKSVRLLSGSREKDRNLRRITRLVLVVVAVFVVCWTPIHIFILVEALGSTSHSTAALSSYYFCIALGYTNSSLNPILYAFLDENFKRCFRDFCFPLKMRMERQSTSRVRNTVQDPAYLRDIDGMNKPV
# [7] = molecular target: Sodium-dependent dopamine transporter (Homo sapiens, UniProt Q01959)
# [8] = molecular target: Sodium-dependent noradrenaline transporter (Homo sapiens, UniProt P23975)
# Chain of Sodium-dependent noradrenaline transporter (P23975 whole entry): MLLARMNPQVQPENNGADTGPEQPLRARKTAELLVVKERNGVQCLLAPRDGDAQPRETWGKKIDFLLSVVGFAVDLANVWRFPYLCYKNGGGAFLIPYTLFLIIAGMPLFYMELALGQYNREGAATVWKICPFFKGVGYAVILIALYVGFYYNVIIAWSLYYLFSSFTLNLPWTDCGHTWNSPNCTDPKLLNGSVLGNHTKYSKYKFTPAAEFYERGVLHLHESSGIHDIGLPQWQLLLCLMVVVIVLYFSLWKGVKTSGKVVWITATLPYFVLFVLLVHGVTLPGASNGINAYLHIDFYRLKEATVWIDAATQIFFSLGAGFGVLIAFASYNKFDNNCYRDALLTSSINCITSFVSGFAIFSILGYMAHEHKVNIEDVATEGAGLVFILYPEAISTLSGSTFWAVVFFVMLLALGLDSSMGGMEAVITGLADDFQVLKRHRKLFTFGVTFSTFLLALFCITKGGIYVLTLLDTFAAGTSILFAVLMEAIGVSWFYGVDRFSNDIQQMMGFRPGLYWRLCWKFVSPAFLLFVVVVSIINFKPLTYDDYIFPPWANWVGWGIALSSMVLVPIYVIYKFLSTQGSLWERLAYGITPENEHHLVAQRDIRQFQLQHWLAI
# [9] = molecular target: T4, Amine oxidase [flavin-containing] A (Homo sapiens, UniProt P21397); type: functional
# T4 sequence (P21397 whole entry): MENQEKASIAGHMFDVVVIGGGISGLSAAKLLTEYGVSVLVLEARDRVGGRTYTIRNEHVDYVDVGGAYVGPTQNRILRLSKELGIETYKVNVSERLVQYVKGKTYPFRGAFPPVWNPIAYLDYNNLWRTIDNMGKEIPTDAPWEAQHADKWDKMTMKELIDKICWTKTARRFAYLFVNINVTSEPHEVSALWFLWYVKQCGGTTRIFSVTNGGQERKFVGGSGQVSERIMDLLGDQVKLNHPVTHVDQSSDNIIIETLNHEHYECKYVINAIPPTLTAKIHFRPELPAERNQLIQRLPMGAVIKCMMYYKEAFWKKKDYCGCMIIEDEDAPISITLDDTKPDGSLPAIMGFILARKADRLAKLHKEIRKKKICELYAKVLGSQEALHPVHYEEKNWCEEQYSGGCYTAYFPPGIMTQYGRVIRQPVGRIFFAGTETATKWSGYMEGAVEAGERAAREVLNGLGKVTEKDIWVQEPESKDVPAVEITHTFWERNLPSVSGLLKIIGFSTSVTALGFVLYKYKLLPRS
# [10] = molecular target: T5, Alpha-1A adrenergic receptor (Homo sapiens, UniProt P35348); type: functional, cell-based
# T5 sequence (P35348 whole entry): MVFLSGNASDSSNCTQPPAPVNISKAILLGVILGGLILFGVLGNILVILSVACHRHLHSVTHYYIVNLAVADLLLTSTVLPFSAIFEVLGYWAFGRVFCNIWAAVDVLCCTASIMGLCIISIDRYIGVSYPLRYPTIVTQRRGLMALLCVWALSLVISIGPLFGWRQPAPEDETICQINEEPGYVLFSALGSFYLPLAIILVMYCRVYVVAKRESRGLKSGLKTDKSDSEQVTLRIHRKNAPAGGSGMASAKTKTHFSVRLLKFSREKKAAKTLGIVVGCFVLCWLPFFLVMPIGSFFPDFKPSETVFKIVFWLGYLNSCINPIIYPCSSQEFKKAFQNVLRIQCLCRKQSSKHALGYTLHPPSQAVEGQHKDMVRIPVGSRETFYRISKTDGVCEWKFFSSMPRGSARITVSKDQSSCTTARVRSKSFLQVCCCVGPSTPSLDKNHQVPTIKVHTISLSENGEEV
# Histamine H1 receptor = Histamine H1 receptor (Homo sapiens, UniProt P35367)
# Chain of Histamine H1 receptor (P35367 whole entry): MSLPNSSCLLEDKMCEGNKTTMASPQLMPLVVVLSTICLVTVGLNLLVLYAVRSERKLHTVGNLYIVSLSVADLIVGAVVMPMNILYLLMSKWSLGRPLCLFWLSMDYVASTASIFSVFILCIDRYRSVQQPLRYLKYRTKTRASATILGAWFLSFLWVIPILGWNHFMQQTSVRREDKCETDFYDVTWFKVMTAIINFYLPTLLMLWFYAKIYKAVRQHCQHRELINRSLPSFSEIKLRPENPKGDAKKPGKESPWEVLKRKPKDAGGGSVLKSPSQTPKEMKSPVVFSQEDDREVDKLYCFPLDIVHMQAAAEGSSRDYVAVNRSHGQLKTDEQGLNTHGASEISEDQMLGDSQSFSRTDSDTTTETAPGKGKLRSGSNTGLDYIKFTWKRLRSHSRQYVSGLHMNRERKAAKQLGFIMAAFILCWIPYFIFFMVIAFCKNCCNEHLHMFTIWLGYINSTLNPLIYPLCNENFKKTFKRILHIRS
# Further: assay procedure not described here.
SMILES,AC50 (Adenosine receptor A1) [µM],AC50 (Adenosine receptor A2a) [µM],AC50 [1] [µM],AC50 [2] [µM],AC50 (Vasopressin V2 receptor) [µM],AC50 [3] [µM],AC50 [4] [µM],AC50 [5] [µM],AC50 [6] [µM],AC50 [7] [µM],AC50 [8] [µM],AC50 [9] [µM],AC50 [10] [µM],AC50 (Histamine H1 receptor) [µM]
N=C(N)NC(=O)c1nc(Cl)c(N)nc1N [AMILORIDE],> 30,> 30,> 30,> 30,> 30,> 30,> 30,> 30,> 30,> 30,> 30,4.41,> 30,–
CC(C)(C)NCC(O)COc1ccccc1C#N (centres undefined) [BUNITROLOL],> 30,–,> 30,> 30,–,–,> 30,–,> 30,–,–,14,> 30,> 30
COc1ccc(C(=O)c2ccccc2)c(O)c1 [OXYBENZONE],> 30,–,> 30,> 30,–,–,> 30,–,> 30,–,–,> 30,> 30,17
